The melting point is the temperature of the solid-liquid transition.

1 compound from publication PMC11547513, “Design, Synthesis and Biological Activity Evaluation of β-Carboline Derivatives Containing Nitrogen Heterocycles” (Molecules, 2024) can be followed below.

For one series, the system named is PC-3 cells. The experiment in a line: Intracellular ROS assay (DCFH-DA, flow cytometry). The format is cell-based, human. The conditions noted are these: 10 μM, 24 h; negative control MFI 19.8. The protocol:
Apoptosis is an important target for antitumor therapy. To explore the antitumor mechanism of compound 8q, cell apoptosis was detected using flow cytometry. […] Moreover, reactive oxygen species (ROS) play a significant role in cell growth, differentiation and apoptosis. Excessive ROS can cause oxidative damage and lead to cell apoptosis. […]
a wound healing assay was performed using the method we previously reported1. In short, PC-3 cells were seeded in a six-well plate at a density of 10 × 105 and incubated at a constant temperature of 37 ℃ and 5% CO2 for 24 h. Then the pipette tip was used to create a uniform wound on the surface of cells. Subsequently, after cleaning twice with PBS, the scratch healing of the 8q treatment group and the positive drug treatment […]
was used to measure and quantify cell migration. […]
PC-3 cells were seeded in a six-well plate at a density of 3 × 105, and cultured at 37 ℃ and 5% CO2 for 24 h before adding 10 μM. […] After completion, the cells were immediately detected on the Flow Cytometry (Solarbio, Beijing, China). […]
at 37 ° C for 20 min. Subsequently, the staining solution was wash off with basic culture medium and detected the fluorescence intensity using the flow cytometer. The data was analyzed and obtained through Flow Jo and Prism 7.04 software. […]
The distribution of cycles was analyzed by Flow Jo and Prism 7.04 software. […]
Background: In flow cytometry, cells or beads pass a laser one at a time.

SMILES strings stand for the structures.

On to `COc1cc(-c2nc(-c3nnc(SCC(=O)Nc4ccc(CN5CCOCC5)cc4)o3)cc3c2[nH]c2ccccc23)cc(OC)c1OC` [Compound 8q, N-(4-(morpholinomethyl)phenyl)-2-((5-(1-(3,4,5-trimethoxyphenyl)-9H-pyrido[3,4-b]indol-3-yl)-1,3,4-oxadiazol-2-yl)thio)acetamide], for which the melting point was 181.8 to 182.7 °C. For the same compound, the “ROS mean fluorescence intensity (MFI) value” in the series on PC-3 cells is given as 138.
